According to patent publication US20250345277A1, “Ionizable Liposome, Preparation Thereof, and Application Thereof in Gene Delivery” (MAXIRNA (ZHEJIANG) TECHNOLOGY CO. LTD., priority 2021, published 2025):
Values belong to the compound of their own block, whether it stands above or below them.

Key:
[1] = system: DC2.4 cells; experiment: In vitro transfection of DC2.4 cells with EGFP mRNA LNP preparation (flow cytometry); type: cell-based, mouse; settings: for Cell Viability / Positive Rate (EGFP) / Fluorescence Intensity: DC2.4 cells; for Cell Viability / Positive Rate (EGFP): EGFP mRNA LNP, 200 ng mRNA per well, flow cytometry; for Fluorescence Intensity: EGFP mRNA expression level, normalized based on the sample with the highest fluorescence intensity
Source text: The description is based on peripheral blood mononuclear cells PBMC (Shanghai Oribiotech Co., Ltd.), human peripheral blood leukemia T cell Jurkat (ATCC), tumor infiltrating lymphocyte TIL (isolated from resected tumor tissue of a liver cancer patient, the preparation method refers to CN114763530A), mouse bone marrow-derived dendritic cells DC2.4 (Cell Bank of the Chinese Academy of Sciences), and Chinese hamster ovary cells CHO (ATCC) were used as verified cell lines for liposome transfection. PBMC, Jurkat, and TIL cells grew in suspension, while DC2.4 and CHO cells grew by adherent culture. All the operation steps of cell culture must strictly abide by the prescribed procedures, and sterile reagents is used to perform aseptic operations under a sterile workbench. The main steps are as follows: • 1) Cell recovery: the preserved cell cryopreservation solution was taken out of the −80° C. refrigerator, and was immediately put in a 37° C. water bath for rapid and continuous shaking, and was completely melted within one minute. Fresh medium was added to the 15 mL centrifuge tube in advance, and the cell solution was added to the centrifuge tube in a biological safety cabinet. A centrifuge tube of the same quality was taken and placed symmetrically in a centrifuge, centrifuged at a low speed at 1200 rpm for 5 min. After centrifugation, the supernatant was removed, and an appropriate amount of medium was slowly added along the tube wall. After the cells were evenly dispersed by blowing gently, the cell suspension was pipette and added to the culture bottle prepared in advance. The state and distribution of the cells in the early stage of recovery were observed under a microscope. The culture bottle was placed in a 5% CO2 incubator and incubated at 37° C., and the recovery time was recorded. • 2) Cell subculture: Under the microscope, if the cell density in the field of view reaches 80%-90%, the cells can be subcultured. Adherent cells need to be digested with trypsin. In order to avoid the residual serum in the culture medium to reduce the activity of trypsin, DPBS solution was added to wash once after removing the original culture medium. After remove the DPBS solution, trypsin was added to degrade the protein at the junction between cells. This separates the cells for further culture. The cells were gently shaked evenly and put into the incubator for digestion for 2 min. Immediately after the digestion was completed, an appropriate amount of medium was added to the original petri dish to terminate the digestion. Finally, the cells were carefully blowed off using a pipette and blowed until they are evenly dispersed, and then inoculated and subcultured at a certain ratio according to the experimental requirements. […]
• 1) DC2.4 cells recovery: the frozen DC2.4 cells were taken out from the −80° C. refrigerator, put in a 37° C. water bath to quickly thaw the cells, added to the preheated medium after thawing, centrifuged at 1200 rpm for 5 min, the supernatant was discarded, and an appropriate amount of DMEM medium with 10% FBS was added to resuspend the recovered DC2.4, and placed in a 5% CO2 incubator at 37° C. for activation and culture. • 2) According to the experimental arrangement, DC2.4 cells were plated on a 24-well plate one day in advance for cell transfection. Through cell counting, the number of cells and cell viability were recorded, the cell suspension were taken at 2×10^5 cells per well, then a certain volume of DMEM medium containing 10% FBS was added and mixed evenly, 1 mL of mixture was added to each well for subsequent transfection experiment. • 3) After 24 hours, the medium was gently removed 30 minutes in advance by a pipette, 1 mL DPBS was added to each well for washing and then removed, then 300 μL serum-free Opti-MEM medium was added to each well for subsequent transfection experiments.
Subsequent steps are the same as the transfection protocol for PBMC cells. […]

[2] = In vitro stability test of LNP preparation stored at 4-8 °C; type: physicochemical; settings: stored at 4-8° C. for 16 weeks; transfection tested on DC2.4
Description: The preparation from Example 2 was stored at 4° C.-8° C. Samples were taken every other week to test the transfection performance of the samples on DC2.4, the size of the nanoparticles and the polydispersity index PDI. The whole process lasted 16 weeks. […] Other LNP preparations were stored at 4-8° C. for 16 weeks, and the particle size, PDI, and cell transfection efficiency also maintained the initial state.

Structure (SMILES): CCCCCCCCCCC(O)CN(CCN1CCN(CCN(CCN(CC(O)CCCCCCCCCC)CC(O)CCCCCCCCCC)CCN(CC(O)CCCCCCCCCC)CC(O)CCCCCCCCCC)CC1)CC(O)CCCCCCCCCC (stereo not drawn) [A-C12]
Cell Viability [1]: 87.1%
Positive Rate (EGFP) [1]: 73.3%
Fluorescence Intensity [1]: 0.84

Structure (SMILES): CCCCCCCCCCCCC(O)CN(CCN1CCN(CCN(CCN(CC(O)CCCCCCCCCCCC)CC(O)CCCCCCCCCCCC)CCN(CC(O)CCCCCCCCCCCC)CC(O)CCCCCCCCCCCC)CC1)CC(O)CCCCCCCCCCCC (stereo not drawn) [A-C14]
Cell Viability [1]: 95.4%
Positive Rate (EGFP) [1]: 92.3%
Fluorescence Intensity [1]: 0.30

Structure (SMILES): CCCCCCCCCCCCCCC(O)CN(CCN1CCN(CCN(CCN(CC(O)CCCCCCCCCCCCCC)CC(O)CCCCCCCCCCCCCC)CCN(CC(O)CCCCCCCCCCCCCC)CC(O)CCCCCCCCCCCCCC)CC1)CC(O)CCCCCCCCCCCCCC (stereo not drawn) [A-C16]
Cell Viability [1]: 90.0%
Positive Rate (EGFP) [1]: 66.3%
Fluorescence Intensity [1]: 0.80

Structure (SMILES): CCCCCCCCCCCCCCCCC(O)CN(CCN1CCN(CCN(CCN(CC(O)CCCCCCCCCCCCCCCC)CC(O)CCCCCCCCCCCCCCCC)CCN(CC(O)CCCCCCCCCCCCCCCC)CC(O)CCCCCCCCCCCCCCCC)CC1)CC(O)CCCCCCCCCCCCCCCC (stereo not drawn) [A-C18]
Cell Viability [1]: 93.0%
Positive Rate (EGFP) [1]: 61.9%
Fluorescence Intensity [1]: 0.87

Structure (SMILES): CCCCCCCCCCC(O)CN(CCOCCN(CCOCCN(CC(O)CCCCCCCCCC)CC(O)CCCCCCCCCC)CCN1CCN(CCOCCN(CC(O)CCCCCCCCCC)CC(O)CCCCCCCCCC)CC1)CC(O)CCCCCCCCCC (stereo not drawn) [B-C12, 19-(2-(4-(2-(2-(di(2-hydroxydodecyl)amino)ethoxy)ethyl)piperazin-1-yl)ethyl)-13, 15-bis(2-hydroxydodecyl)-16,22-dioxa-13,19,25-triazaheptakadecane-11,27-diol]
Cell Viability [1]: 85.0%
Positive Rate (EGFP) [1]: 83.0%
Fluorescence Intensity [1]: 0.20

particle size, PDI and cell transfection efficiency on storage (FIG. 8) [2]: remained in the initial state
Structure (SMILES): CCCCCCCCCCCCC(O)CN(CCOCCN(CCOCCN(CC(O)CCCCCCCCCCCC)CC(O)CCCCCCCCCCCC)CCN1CCN(CCOCCN(CC(O)CCCCCCCCCCCC)CC(O)CCCCCCCCCCCC)CC1)CC(O)CCCCCCCCCCCC (stereo not drawn) [B-C14]
cell viability by flow cytometry (FIG. 1) ([1]; DC2.4, after in vitro transfection): high viability
transfection efficiency (FIG. 2) ([1]; DC2.4, in the absence of AopE4): high transfection efficiency
Cell Viability [1]: 95.0%
Positive Rate (EGFP) [1]: 90.2%
Fluorescence Intensity [1]: 1.00

Structure (SMILES): CCCCCCCCCCC(O)CN(CCOCCOCCN(CCOCCOCCN(CC(O)CCCCCCCCCC)CC(O)CCCCCCCCCC)CCN1CCN(CCOCCOCCN(CC(O)CCCCCCCCCC)CC(O)CCCCCCCCCC)CC1)CC(O)CCCCCCCCCC (stereo not drawn) [C-C12]
Cell Viability [1]: 94.0%
Positive Rate (EGFP) [1]: 64.4%
Fluorescence Intensity [1]: 0.71

Structure (SMILES): CCCCCCCCCCC(O)CN(CCOCCOCCOCCN(CCOCCOCCOCCN(CC(O)CCCCCCCCCC)CC(O)CCCCCCCCCC)CCN1CCN(CCOCCOCCOCCN(CC(O)CCCCCCCCCC)CC(O)CCCCCCCCCC)CC1)CC(O)CCCCCCCCCC [D-C12]
Cell Viability [1]: 90.8%
Positive Rate (EGFP) [1]: 65.6%
Fluorescence Intensity [1]: 0.07

Structure (SMILES): CCCCCCCCCCCCC(O)CN(CCOCCOCCOCCN(CCOCCOCCOCCN(CC(O)CCCCCCCCCCCC)CC(O)CCCCCCCCCCCC)CCN1CCN(CCOCCOCCOCCN(CC(O)CCCCCCCCCCCC)CC(O)CCCCCCCCCCCC)CC1)CC(O)CCCCCCCCCCCC [D-C14]
Cell Viability [1]: 91.3%
Positive Rate (EGFP) [1]: 96.7%
Fluorescence Intensity [1]: 0.95

Structure (SMILES): CCCCCCCCCCCCCCC(O)CN(CCOCCOCCOCCN(CCOCCOCCOCCN(CC(O)CCCCCCCCCCCCCC)CC(O)CCCCCCCCCCCCCC)CCN1CCN(CCOCCOCCOCCN(CC(O)CCCCCCCCCCCCCC)CC(O)CCCCCCCCCCCCCC)CC1)CC(O)CCCCCCCCCCCCCC [D-C16]
Cell Viability [1]: 91.1%
Positive Rate (EGFP) [1]: 71.7%
Fluorescence Intensity [1]: 0.82

Structure (SMILES): CCCCCCCCCCCCCCCCC(O)CC(CCOCCOCCOCCN(CCOCCOCCOCCN(CC(O)CCCCCCCCCCCCCCCC)CC(O)CCCCCCCCCCCCCCCC)CCN1CCN(CCOCCOCCOCCN(CC(O)CCCCCCCCCCCCCCCC)CC(O)CCCCCCCCCCCCCCCC)CC1)CC(O)CCCCCCCCCCCCCCCC [D-C18]
Cell Viability [1]: 81.5%
Positive Rate (EGFP) [1]: 64.4%
Fluorescence Intensity [1]: 0.45

Structure (SMILES): CCCCCCCCCCCCC(O)CN(CCN(CCN1CCN(C)CC1)CCN(CC(O)CCCCCCCCCCCC)CC(O)CCCCCCCCCCCC)CC(O)CCCCCCCCCCCC (stereo not drawn) [E-C14]
Cell Viability [1]: >99.0%
Positive Rate (EGFP) [1]: 84.3%
Fluorescence Intensity [1]: 0.45

Structure (SMILES): CCCCCCCCCCCCC(O)CN(CCOCCN(CCOCCN(CC(O)CCCCCCCCCCCC)CC(O)CCCCCCCCCCCC)CCN1CCN(C)CC1)CC(O)CCCCCCCCCCCC (stereo not drawn) [F-C14]
Cell Viability [1]: 93.2%
Positive Rate (EGFP) [1]: 73.5%
Fluorescence Intensity [1]: 0.33

Structure (SMILES): CCCCCCCCCCCCC(O)CN(CCOCCOCCN(CCOCCOCCN(CC(O)CCCCCCCCCCCC)CC(O)CCCCCCCCCCCC)CCN1CCN(C)CC1)CC(O)CCCCCCCCCCCC (stereo not drawn) [G-C14]
Cell Viability [1]: >99.0%
Positive Rate (EGFP) [1]: 67.5%
Fluorescence Intensity [1]: 0.30

Structure (SMILES): CCCCCCCCCCCCC(O)CN(CCOCCOCCOCCN(CCOCCOCCOCCN(CC(O)CCCCCCCCCCCC)CC(O)CCCCCCCCCCCC)CCN1CCN(C)CC1)CC(O)CCCCCCCCCCCC (stereo not drawn) [H-C14]
Cell Viability [1]: 91.7%
Positive Rate (EGFP) [1]: 66.8%
Fluorescence Intensity [1]: 0.52
